In paper PMC5532651, “Bistratamides M and N, Oxazole-Thiazole Containing Cyclic Hexapeptides Isolated from Lissoclinum bistratum Interaction of Zinc (II) with Bistratamide K” (Marine Drugs, 2017):

Legend:
[1] = system: PSN1 (human pancreatic carcinoma cells); assay: Cell proliferation / cytotoxicity, PSN1 pancreas; assay type: cell-based; conditions: for LC50: concentration producing 50% cell death vs control; for GI50: concentration producing 50% inhibition of cell growth vs control, NCI algorithm; for TGI: concentration producing total growth inhibition vs control
Procedure: (§1) The cytotoxic activity of compounds 1 and 2 was tested against NSLC A-549 human lung carcinoma cells, MDA-MB-231 human breast adenocarcinoma cells, HT-29 human colorectal carcinoma cells, and PSN1 (human pancreatic carcinoma cells). The concentration giving 50% inhibition of cell growth (GI50) was calculated according to the procedure described in the literature. Cell survival was estimated using the National Cancer Institute (NCI) algorithm. Three dose response parameters were calculated for 1 and 2.

[2] = system: NSLC A-549 human lung carcinoma cells; assay: Cell proliferation / cytotoxicity, NSLC A-549 lung; assay type: cell-based; conditions: for LC50: concentration producing 50% cell death vs control; for GI50: NCI algorithm; for TGI: concentration producing total growth inhibition vs control
Procedure: as §1

[3] = system: HT-29 human colorectal carcinoma cells; assay: Cell proliferation / cytotoxicity, HT-29 colon; assay type: cell-based; conditions: for LC50: concentration producing 50% cell death vs control; for GI50: concentration producing 50% inhibition of cell growth vs control, NCI algorithm; for TGI: concentration producing total growth inhibition vs control
Procedure: as §1

[4] = system: human tumor cell lines A-549 (lung), HT-29 (colon), MDA-MB-231 (breast) and PSN1 (pancreas); assay: Cytotoxicity against four human tumor cell lines (summary in words); assay type: cell-based; conditions: GI50 values in the micromolar range
Procedure: as §1

[5] = system: recombinant human topoisomerase I; assay: Enzymatic Topoisomerase 1 (Top1) assay; assay type: biochemical; conditions: up to highest concentration tested 100 μM (range 100 to 0.2 μM); 50 pM enzyme; 1 h preincubation, 1 h reaction, room temperature, pH 8.0; H19 dye fluorescence
Procedure: The activity of human topoisomerase I was determined based on the increase in fluorescence of a commercial dye (“H19”, Profoldin, Westborough, MA, USA) when interacting with DNA and the higher number of interaction points present in supercoiled DNA with respect to relaxed DNA. Therefore, the activity of the enzyme causes a decrease of fluorescence intensity when the probe is added. The enzyme reaction is performed in a final volume of 20 μL in 384 black wells. Compounds 1 and 2, at twice their final concentrations, were mixed with 50 pM recombinant human topoisomerase I (Profoldin, Westborough, MA, USA) in 10 μL of 10 mM Tris-HCl pH 8.0 with 150 mM sodium chloride, 3 mM magnesium chloride and 5% (v/v) glycerol and incubated for 1 h at room temperature. Then, reaction was started by the addition of 10 μL of supercoiled DNA (Profoldin, Westborough, MA, USA) at 25 μg/mL in the same buffer and the mixture was incubated at room temperature for 1 h. […] After 1 h at room temperature the degree of conversion from supercoiled to relaxed DNA was determined by monitoring fluorescence intensity (excitation at 485 nm, emission at 535 nm) in a microtiter plate reader. […] IC50 values were calculated by fitting the results to a typical four parameters logistic curve by nonlinear regression analysis.

[6] = system: MDA-MB-231 human breast adenocarcinoma cells; assay: Cell proliferation / cytotoxicity, MDA-MB-231 breast; assay type: cell-based; conditions: for LC50: concentration producing 50% cell death vs control; for GI50: concentration producing 50% inhibition of cell growth vs control, NCI algorithm; for TGI: concentration producing total growth inhibition vs control
Procedure: as §1

[7] = concentration producing 50% inhibition of cell growth vs control

CC[C@H](C)[C@@H]1NC(=O)c2csc(n2)[C@H](C)NC(=O)c2coc(n2)[C@H](C)NC(=O)c2csc1n2 [Bistratamide M (1), Bistratamide M]
LC50 [1]: >20.0 µM | GI50 [1]: 9.8 µM | TGI [1]: >20.0 µM | LC50 [2]: >20.0 µM | GI50 [2, 7]: 9.1 µM | TGI [2]: >20.0 µM | LC50 [3]: >20.0 µM | GI50 [3]: 16 µM | TGI [3]: >20.0 µM | cytotoxic activity (in words) [4]: moderate cytotoxic activity with GI50 values in the micromolar range | Top1 inhibition [5]: failed to show any hint of inhibition even at the highest concentration tested | LC50 [6]: >20.0 µM | GI50 [6]: 18 µM | TGI [6]: >20.0 µM

CC[C@H](C)[C@@H]1NC(=O)c2csc(n2)[C@@H](C)NC(=O)c2coc(n2)[C@H](C)NC(=O)c2csc1n2 [Bistratamide N (2), Bistratamide N]
LC50 [1]: >20.0 µM | GI50 [1]: 15 µM | TGI [1]: >20.0 µM | LC50 [2]: >20.0 µM | GI50 [2, 7]: 11 µM | TGI [2]: >20.0 µM | LC50 [3]: >20 µM | GI50 [3]: 13 µM | TGI [3]: >20 µM | cytotoxic activity (in words) [4]: moderate cytotoxic activity with GI50 values in the micromolar range | Top1 inhibition [5]: failed to show any hint of inhibition even at the highest concentration tested | LC50 [6]: >20.0 µM | GI50 [6]: > 20 µM | TGI [6]: >20.0 µM

COc1cccc2c1C(=O)c1c(O)c3c(c(O)c1C2=O)C[C@@](O)(C(=O)CO)C[C@@H]3O[C@H]1C[C@H](N)[C@H](O)[C@H](C)O1 [Doxorubicin, reference compound]
GI50 ([1]; Homo sapiens): 0.2 µM | LC50 [1]: 3.1 µM | TGI [1]: 0.5 µM | GI50 ([2]; Homo sapiens, A549, concentration producing 50% inhibition of cell growth vs control): 0.2 µM | LC50 [2]: >17.2 µM | TGI [2]: 0.9 µM | GI50 ([3]; Homo sapiens): 0.3 µM | LC50 [3]: >17.2 µM | TGI [3]: 0.9 µM | GI50 ([6]; Homo sapiens): 0.2 µM | LC50 [6]: 2.4 µM | TGI [6]: 0.5 µM
